Experimental data reported in PubChem BioAssay AID248 (DTP/NCI, 2004).
“And” between values parts separate entries of the source, which are not always exact repeats. Identical values can stand only once. Inconclusive results and toxic doses are left out. Rule as the data show it: active = T/C of 150% or more; inactive = T/C below 125%.

System: L1210 leukemia ip in BDF1 mice, survival T/C
Assay: NCI In Vivo Anticancer Drug Screen. Data for tumor model L1210 Leukemia (intraperitoneal) in B6D2F1 (BDF1) mice
Settings: endpoint: mean survival time, higher = longer survival
Method in brief: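 In this screen, tumor-bearing mice given compound are compared to those given vehicle, and their survival values are reported as a treated-to-control quotient.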

[1] = dose: 100.0 mg/kg/injection, schedule: Q04DX003 (ip), vehicle: saline with Tween-80
[2] = dose: 200.0 mg/kg/injection, schedule: Q04DX003 (ip), vehicle: saline with Tween-80
[3] = dose: 100.0 mg/kg/injection, schedule: Q01DX001 (ip), vehicle: Klucel (hydroxypropylcellulose) (HPC)
[4] = dose: 200.0 mg/kg/injection, schedule: Q01DX001 (ip), vehicle: Klucel (hydroxypropylcellulose) (HPC)
[5] = dose: 100.0 mg/kg/injection, schedule: Q01DX001 (ip), vehicle: saline with Tween-80
[6] = dose: 200.0 mg/kg/injection, schedule: Q01DX001 (ip), vehicle: saline with Tween-80
[7] = dose: 400.0 mg/kg/injection, schedule: Q01DX001 (ip), vehicle: saline with Tween-80
[8] = dose: 400.0 mg/kg/injection, schedule: Q04DX003 (ip), vehicle: saline with Tween-80
[9] = dose: 100.0 mg/kg/injection, schedule: Q01DX009 (ip), vehicle: Klucel (hydroxypropylcellulose) (HPC)
[10] = dose: 200.0 mg/kg/injection, schedule: Q01DX009 (ip), vehicle: Klucel (hydroxypropylcellulose) (HPC)
[11] = dose: 400.0 mg/kg/injection, schedule: Q01DX009 (ip), vehicle: Klucel (hydroxypropylcellulose) (HPC)
[12] = dose: 100.0 mg/kg/injection, schedule: Q04DX003 (ip), vehicle: Klucel (hydroxypropylcellulose) (HPC)
[13] = dose: 200.0 mg/kg/injection, schedule: Q04DX003 (ip), vehicle: Klucel (hydroxypropylcellulose) (HPC)
[14] = dose: 400.0 mg/kg/injection, schedule: Q04DX003 (ip), vehicle: Klucel (hydroxypropylcellulose) (HPC)

Measured: T/C

O=S(=O)(CBr)N1CCOCC1
inactive: dose: 50.0 mg/kg/injection, schedule: Q04DX003 (ip), vehicle: saline with Tween-80 93 % of control | [1] 98 % of control | [2] 98 % of control

Cc1cc2nc3[nH]c(=O)c4c(n3c2cc1C)CCC4
inactive: dose: 50.0 mg/kg/injection, schedule: Q04DX002 (ip), vehicle: saline 87 % of control | dose: 100.0 mg/kg/injection, schedule: Q04DX002 (ip), vehicle: saline 108 % of control | dose: 200.0 mg/kg/injection, schedule: Q04DX002 (ip), vehicle: saline 112 % of control

CN1CN(c2ccccc2)C2(CCN(CCc3cc4ccccc4o3)CC2)C1=O
inactive: [3] 96 % of control | [4] 95 % of control | dose: 400.0 mg/kg/injection, schedule: Q01DX001 (ip), vehicle: Klucel (hydroxypropylcellulose) (HPC) 101 % of control

O=C(O)c1ccc[nH]c1=O
inactive: [5] 97 % of control | [6] 95 % of control | [7] 98 % of control

CC(C)(C)C1=CC(=O)N2CC=CCC2(C#N)C1=O (stereo not drawn)
inactive: dose: 50.0 mg/kg/injection, schedule: Q01DX001 (ip), vehicle: Klucel (hydroxypropylcellulose) (HPC) 99 % of control | [3] 99 % of control | [4] 99 % of control

O=P(NC12CC3CC(CC(C3)C1)C2)(N1CC1)N1CC1
active: dose: 9.0 mg/kg/injection, schedule: Q04DX003 (ip), vehicle: Klucel (hydroxypropylcellulose) (HPC) 150 % of control | dose: 13.3 mg/kg/injection, schedule: Q04DX003 (ip), vehicle: Klucel (hydroxypropylcellulose) (HPC) 152 % of control and 182 % of control | dose: 20.0 mg/kg/injection, schedule: Q04DX003 (ip), vehicle: Klucel (hydroxypropylcellulose) (HPC) 155 % of control and 176 % of control and 225 % of control | dose: 27.0 mg/kg/injection, schedule: Q01DX001 (ip), vehicle: Klucel (hydroxypropylcellulose) (HPC) 169 % of control
inactive: dose: 4.0 mg/kg/injection, schedule: Q04DX003 (ip), vehicle: Klucel (hydroxypropylcellulose) (HPC) 107 % of control | dose: 30.0 mg/kg/injection, schedule: Q04DX003 (ip), vehicle: Klucel (hydroxypropylcellulose) (HPC) 92 % of control

CCCCCCCCCCCCNc1ccccn1
inactive: [1] 88 % of control | [2] 94 % of control | [8] 96 % of control

CC(/C=C\c1cccc([N+](=O)[O-])c1)=N\NC(=O)c1ccncc1
inactive: [1] 93 % of control | [2] 101 % of control | [8] 96 % of control

CCOC(=O)NC1CCCCC1
inactive: dose: 100.0 mg/kg/injection, schedule: Q01DX001 (ip), vehicle: gum acacia 97 % of control | dose: 200.0 mg/kg/injection, schedule: Q01DX001 (ip), vehicle: gum acacia 97 % of control | dose: 400.0 mg/kg/injection, schedule: Q01DX001 (ip), vehicle: gum acacia 105 % of control

Cc1ccc(S(=O)(=O)OCCOc2ccc(C(C)(C)CC(C)(C)C)cc2)cc1
inactive: [9] 100 % of control | [10] 101 % of control | [11] 100 % of control

CCN(CC)CCOC(=O)CSC1C2CC3C(C2)C31 (stereo not drawn)
inactive: dose: 50.0 mg/kg/injection, schedule: Q01DX009 (ip), vehicle: saline 94 % of control | dose: 100.0 mg/kg/injection, schedule: Q01DX009 (ip), vehicle: saline 90 % of control | dose: 200.0 mg/kg/injection, schedule: Q01DX009 (ip), vehicle: saline 123 % of control

CC(=O)Nc1cc(Cl)c(Cl)cc1N
inactive: [9] 95 % of control | [10] 98 % of control | [11] 96 % of control

O=C1C=C(c2ccccc2)C(O)(c2ccccc2)O1 (stereo not drawn)
inactive: [5] 106 % of control | [6] 103 % of control | [7] 101 % of control

CSCc1ccc(N)cc1
inactive: [9] 105 % of control | [12] 103 % of control | [10] 112 % of control | [13] 92 % of control | [11] 101 % of control | [14] 98 % of control

CC(=O)OCC12CCC(O1)C1C(=O)OC(=O)C12 (stereo not drawn)
inactive: [9] 91 % of control | [12] 97 % of control | [10] 88 % of control | [13] 98 % of control | [11] 93 % of control | [14] 90 % of control

c1ccc(-c2cc(-c3ccccc3)c(-c3ccccc3)c(-c3ccccc3)c2-c2ccccc2)cc1
inactive: dose: 50.0 mg/kg/injection, schedule: Q01DX009 (ip), vehicle: saline with Tween-80 87 % of control | dose: 100.0 mg/kg/injection, schedule: Q01DX009 (ip), vehicle: saline with Tween-80 93 % of control | dose: 200.0 mg/kg/injection, schedule: Q01DX009 (ip), vehicle: saline with Tween-80 93 % of control

CCC(C)C(NCc1ccccc1)C(=O)O (stereo not drawn)
inactive: dose: 100.0 mg/kg/injection, schedule: Q01DX001 (ip), vehicle: acetone 108 % of control | dose: 100.0 mg/kg/injection, schedule: Q04DX003 (ip), vehicle: saline 102 % of control | dose: 200.0 mg/kg/injection, schedule: Q01DX001 (ip), vehicle: acetone 97 % of control | dose: 200.0 mg/kg/injection, schedule: Q04DX003 (ip), vehicle: saline 93 % of control | dose: 400.0 mg/kg/injection, schedule: Q01DX001 (ip), vehicle: acetone 90 % of control | dose: 400.0 mg/kg/injection, schedule: Q04DX003 (ip), vehicle: saline 96 % of control
